Measurements as given in patent US20230135524A1, “ARYL HYDANTOIN HETEROCYCLES AND METHODS OF USE” (The United States of America,as represented by the …, priority 2020, published 2023).
Like-named read-outs stand apart in the source and are kept apart here.

Key:
Type in all cases: cell-based
AR = biological target: T1, AR (Homo sapiens, UniProt P10275); assay: AR transcriptional output, ARE-luciferase assay in HEK 293T cells; details: for activity at 10 µM: HEK-293T, read-out: AR antagonist activity (% RLU); for antagonist or inverse agonist activity on AR transcriptional activity (in words): 10 μM, HEK 293T, FIG. 6A
T1 construct: host or cells: HEK 293T
T1 sequence (P10275 1-920): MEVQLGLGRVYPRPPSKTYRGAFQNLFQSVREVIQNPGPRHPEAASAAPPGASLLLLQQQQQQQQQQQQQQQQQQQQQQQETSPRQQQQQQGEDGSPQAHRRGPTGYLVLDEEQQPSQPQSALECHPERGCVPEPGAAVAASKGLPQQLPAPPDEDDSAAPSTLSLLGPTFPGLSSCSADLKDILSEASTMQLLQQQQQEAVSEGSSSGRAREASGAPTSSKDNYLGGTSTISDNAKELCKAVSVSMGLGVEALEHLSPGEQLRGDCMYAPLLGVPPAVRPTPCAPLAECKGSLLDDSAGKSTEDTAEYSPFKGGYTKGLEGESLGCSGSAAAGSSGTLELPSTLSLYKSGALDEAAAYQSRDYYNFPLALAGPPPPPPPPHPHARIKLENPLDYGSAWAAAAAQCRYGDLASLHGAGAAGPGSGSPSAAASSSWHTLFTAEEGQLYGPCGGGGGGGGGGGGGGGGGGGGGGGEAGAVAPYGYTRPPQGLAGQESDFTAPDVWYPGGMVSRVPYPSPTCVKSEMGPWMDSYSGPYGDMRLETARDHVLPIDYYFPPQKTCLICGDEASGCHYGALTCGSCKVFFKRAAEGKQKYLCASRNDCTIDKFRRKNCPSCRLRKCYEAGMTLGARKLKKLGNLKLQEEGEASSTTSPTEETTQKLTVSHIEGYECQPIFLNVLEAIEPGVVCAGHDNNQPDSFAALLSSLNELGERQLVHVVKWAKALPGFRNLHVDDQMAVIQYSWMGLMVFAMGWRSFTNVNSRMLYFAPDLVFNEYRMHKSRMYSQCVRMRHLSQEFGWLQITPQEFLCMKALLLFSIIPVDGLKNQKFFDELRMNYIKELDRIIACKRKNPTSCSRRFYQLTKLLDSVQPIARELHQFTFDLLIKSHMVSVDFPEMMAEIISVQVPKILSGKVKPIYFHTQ
Protocol: 100% is set to the activity with 200 μM testosterone, and 0% is set to the basal level (no ligand).
Cells were maintained in steroid free media, and stimulated with 200 μM testosterone, followed immediately by administration of exemplary compounds (Table 1, below). RLU is relative luciferase units, relative to DMSO control with 200 μM testosterone alone. Data represent an average of 3 independent experiments performed in triplicate wells per compounds at 10 μM.
Cells were maintained in steroid-free media, and stimulated with 200 μM testosterone, followed immediately by administration of a test compound. […] Compounds were dosed at 10 μM in FIGS. 6A and 6B.
Cells were maintained in steroid-free media, and stimulated with 200 μM testosterone, followed immediately by administration of a test compound.

LNCaP = assay: IncuCyte % confluence cell growth inhibition, LNCaP; details: Homo sapiens, read-out: IC50 values (μM), LNCaP
Protocol: (§1) Images were then analyzed to discern the % confluence of cells in each well. IC50 values were calculated from dose response curves of the % cell growth inhibition relative to DMSO control at the same time point per each cell line.

LNCAP AR = assay: IncuCyte % confluence cell growth inhibition, LNCAP AR; details: read-out: IC50 values (μM), LNCAP AR
Protocol: as §1

LAPC4 = assay: IncuCyte % confluence cell growth inhibition, LAPC4; details: Homo sapiens
Protocol: as §1

22Rv1 = assay: IncuCyte % confluence cell growth inhibition, 22Rv1; details: Homo sapiens
Protocol: as §1

LNCaP ARin vivo = assay: IncuCyte % confluence cell growth inhibition, LNCaP ARin vivo; details: Homo sapiens, read-out: IC50 values (μM), LNCaP ARin vivo
Protocol: as §1

LNCaP ARF876L = assay: IncuCyte % confluence cell growth inhibition, LNCaP ARF876L; details: Homo sapiens, AR-positive, AR mutation F876L, % cell growth inhibition relative to DMSO
Protocol: as §1

PC3 = assay: IncuCyte % confluence cell growth inhibition, PC3; details: Homo sapiens
Protocol: as §1

DU145 = assay: IncuCyte % confluence cell growth inhibition, DU145; details: Homo sapiens
Protocol: as §1

[1] = LAPC4, read-out: IC50 values (μM), LAPC4
[2] = 22Rv1, read-out: IC50 values (μM), 22Rv1
[3] = PC-3, read-out: IC50 values (μM), PC3
[4] = DU-145, read-out: IC50 values (μM), DU145
[5] = AR-positive, AR mutation T877A, % cell growth inhibition relative to DMSO
[6] = AR-positive, AR w.t., % cell growth inhibition relative to DMSO
[7] = LAPC4, AR-positive, AR w.t., % cell growth inhibition relative to DMSO, read-out: IC50 values (μM), LAPC4
[8] = 22Rv1, AR-positive, AR mutation H874Y, % cell growth inhibition relative to DMSO, read-out: IC50 values (μM), 22Rv1
[9] = PC-3, AR-negative, % cell growth inhibition relative to DMSO, read-out: IC50 values (μM), PC3
[10] = DU-145, AR-negative, % cell growth inhibition relative to DMSO, read-out: IC50 values (μM), DU145

## CC1(C)C(=O)N(c2ccc(C#N)c(C(F)(F)F)c2)C(=S)N1Cc1c[nH]nn1 [Compound 18a]
AR
  activity at 10 µM: 412%

## C#Cc1ccc(CN2C(=O)N(c3ccc(C#N)c(C(F)(F)F)c3)C(=O)C2(C)C)cc1 [Compound 6, 4-[3-[(4-ethynylphenyl)methyl]-4,4-dimethyl-2,5-dioxo-1-imidazolidinyl]-2-(trifluoromethyl)-benzonitrile]
AR
  antagonist or inverse agonist activity on AR transcriptional activity (in words): relatively weak antagonists
  activity at 10 µM: 138%

## CC1(C)C(=O)N(c2ccc(C#N)c(C(F)(F)F)c2)C(=O)N1Cc1ccc(-n2cc(CO)nn2)cc1 [Compound 20b, 4-(3-(4-(4-(hydroxymethyl)-1H-1,2,3-triazol-1-yl)benzyl)-4,4-dimethyl-2,5-dioxoimidazolidin-1-yl) 2-(trifluoromethyl)benzonitrile]
AR
  activity at 10 µM: 73%

## CC1(C)C(=O)N(c2ccc(C#N)c(C(F)(F)F)c2)C(=S)N1Cc1ccc(-c2c[nH]nn2)c(F)c1 [Compound 19c, 4-(3-(3-Fluoro-4-(1H-1,2,3-triazol-4-yl)benzyl)-4,4-dimethyl-5-oxo-2-thioxoimidazolidin-1-yl)-2-(trifluoromethyl)benzonitrile]
LNCaP
  IC50: 36.2 µM
LNCAP AR
  IC50: 28 µM
LAPC4; [1]
  IC50: 17.9 µM
22Rv1; [2]
  IC50: 25.3 µM
LNCaP ARin vivo
  IC50: 34 µM
LNCaP ARF876L
  IC50: 33.9 µM
PC3; [3]
  IC50: 59.9 µM
DU145; [4]
  IC50: 114 µM

## CCn1cc(-c2ccc(CN3C(=S)N(c4ccc(C#N)c(C(F)(F)F)c4)C(=O)C3(C)C)cc2)nn1 [Compound 15c, 4-(3-(4-(1-ethyl-1H-1,2,3-triazol-4-yl)benzyl)-4,4-dimethyl-5-oxo-2-thioxoimidazolidin-1-yl)-2-(trifluoromethyl)benzonitrile]
AR
  activity at 10 µM: 3%

## CC1(C)C(=O)N(c2ccc(C#N)c(C(F)(F)F)c2)C(=O)N1Cc1ccc(-c2c[nH]nn2)c(F)c1 [Compound 19b, 4-(3-(3-Fluoro-4-(1H-1,2,3-triazol-4-yl)benzyl)-4,4-dimethyl-2,5-dioxoimidazolidin-1-yl)-2-(trifluoromethyl)benzonitrile]
LNCaP
  IC50: 43.1 µM
LNCAP AR
  IC50: 35.1 µM
LAPC4; [1]
  IC50: 33.1 µM
22Rv1; [2]
  IC50: 40.6 µM
LNCaP ARin vivo
  IC50: 60.1 µM
LNCaP ARF876L
  IC50: 49.4 µM
PC3; [3]
  IC50: 60.9 µM
DU145; [4]
  IC50: 65 µM

## C#Cc1ccc(CN2C(=S)N(c3ccc(C#N)c(C(F)(F)F)c3)C(=O)C2(C)C)cc1 [Compound 10, 4-(3-(4-ethynylbenzyl)-4,4-dimethyl-5-oxo-2-thioxoimidazolidin-1-yl)-2-(trifluoromethyl)benzonitrile]
AR
  antagonist or inverse agonist activity on AR transcriptional activity (in words): relatively weak antagonists
  activity at 10 µM: 95%

## Cn1cc(-c2ccc(CN3C(=O)N(c4ccc(C#N)c(C(F)(F)F)c4)C(=O)C3(C)C)cc2)nn1 [Compound 14b, 4-(4,4-dimethyl-3-(4-(1-methyl-1H-1,2,3-triazol-4-yl)benzyl)-2,5-dioxoimidazolidin-1-yl)-2-(trifluoromethyl)benzonitrile]
AR
  activity at 10 µM: -3%

## CC1(C)C(=O)N(c2ccc(C#N)c(C(F)(F)F)c2)C(=O)N1Cc1ccc(-c2c[nH]nn2)cc1F [Compound 19a, 4-(3-(2-Fluoro-4-(1H-1,2,3-triazol-4-yl)benzyl)-4,4-dimethyl-2,5-dioxoimidazolidin-1-yl)-2-(trifluoromethyl)benzonitrile]
LNCaP
  IC50: 39 µM
LNCAP AR
  IC50: 29.4 µM
LAPC4; [1]
  IC50: 30.7 µM
22Rv1; [2]
  IC50: 36.7 µM
LNCaP ARin vivo
  IC50: 35.8 µM
LNCaP ARF876L
  IC50: 41.4 µM
PC3; [3]
  IC50: 63.4 µM
DU145; [4]
  IC50: 46.1 µM

## CCCCn1cc(-c2ccc(CN3C(=S)N(c4ccc(C#N)c(C(F)(F)F)c4)C(=O)C3(C)C)cc2)nn1 [Compound 15e, 4-(3-(4-(1-butyl-1H-1,2,3-triazol-4-yl)benzyl)-4,4-dimethyl-5-oxo-2-thioxoimidazolidin-1-yl)-2-(trifluoromethyl)benzonitrile]
AR
  activity at 10 µM: -3%

## CNC(=O)c1ccc(N2C(=S)N(c3cnc(C#N)c(C(F)(F)F)c3)C(=O)C23CCC3)cc1F [ARN509, reference compound]
LNCaP; [5]
  IC50: 34.5 µM
LNCAP AR; [6]
  IC50: 98.9 µM
LAPC4; [7]
  IC50: 86 µM
22Rv1; [8]
  IC50: 32.5 µM
LNCaP ARin vivo; [6]
  IC50: 270 µM
PC3; [9]
  IC50: 300 µM
DU145; [10]
  IC50: 61.8 µM

## C#Cc1ccc(N2C(=S)N(c3ccc(C#N)c(C(F)(F)F)c3)C(=O)C2(C)C)cc1 [Compound 13, 4-(3-(4-ethynylphenyl)-4,4-dimethyl-5-oxo-2-thioxoimidazolidin-1-yl)-2-(trifluoromethyl)benzonitrile]
AR
  antagonist or inverse agonist activity on AR transcriptional activity (in words): relatively weak antagonists
  activity at 10 µM: 59%

## CCCn1cc(-c2ccc(CN3C(=S)N(c4ccc(C#N)c(C(F)(F)F)c4)C(=O)C3(C)C)cc2)nn1 [Compound 15d, 4-(4,4-dimethyl-5-oxo-3-(4-(1-propyl-1H-1,2,3-triazol-4-yl)benzyl)-2-thioxoimidazolidin-1-yl)-2-(trifluoromethyl)benzonitrile]
AR
  activity at 10 µM: 4%

## CC(=O)N1CCN(CCOc2ccc(C3CCN(C4=Nn5c(nnc5C(F)(F)F)CC4)CC3)cc2)CC1 [AZD3514, reference compound]
LNCaP; [5]
  IC50: 76.9 µM
LNCAP AR; [6]
  IC50: 25.8 µM
LAPC4; [7]
  IC50: 30.5 µM
22Rv1; [8]
  IC50: 26.8 µM
PC3; [9]
  IC50: 122 µM
DU145; [10]
  IC50: 61.2 µM

## CC1(C)C(=O)N(c2ccc(C#N)c(C(F)(F)F)c2)C(=O)N1Cc1ccc(-n2cc(CCO)nn2)cc1 [Compound 20c, 4-(3-(4-(4-(2-hydroxyethyl)-1H-1,2,3-triazol-1-yl)benzyl)-4,4-dimethyl-2,5-dioxoimidazolidin-1-yl)-2-(trifluoromethyl)benzonitrile]
AR
  activity at 10 µM: -1%

## Cn1cc(-c2ccc(CN3C(=S)N(c4ccc(C#N)c(C(F)(F)F)c4)C(=O)C3(C)C)cc2)nn1 [Compound 15b, 4-(4,4-dimethyl-3-(4-(1-methyl-1H-1,2,3-triazol-4-yl)benzyl)-5-oxo-2-thioxoimidazolidin-1-yl)-2-(trifluoromethyl)benzonitrile]
AR
  activity at 10 µM: -41%

## CC1(C)C(=O)N(c2ccc(C#N)c(C(F)(F)F)c2)C(=O)N1Cc1ccc(-n2ccnn2)cc1 [Compound 20a, 4-(3-(4-(1H-1,2,3-triazol-1-yl)benzyl)-4,4-dimethyl-2,5-dioxoimidazolidin-1-yl)-2-(trifluoromethyl)benzonitrile]
AR
  activity at 10 µM: 57%

## CC(O)(CS(=O)(=O)c1ccc(F)cc1)C(=O)Nc1ccc(C#N)c(C(F)(F)F)c1 (centres unmarked) [Bicalutamide, bicalutamide, reference compound]
LNCAP AR; [6]
  IC50: 80.5 µM
LAPC4; [7]
  IC50: 67 µM
22Rv1; [8]
  IC50: 53.4 µM
PC3; [9]
  IC50: 239 µM
